Reference: US11186588B2 (AYUMI PHARMACEUTICAL CORPORATION, priority 2017, dated 2021)

Columns and labels:
[1] = molecular target: Recombinant BRD4 (44-168) protein (Homo sapiens (Human), UniProt O60885); experiment: BRD4-H4KAc4 binding assay (amplified luminescence proximity homogeneous assay, AlphaScreen); conditions: 10 uM
Description: In order to evaluate BRD4 inhibitory activity of the present compounds, BRD4-H4KAc4 binding assay was carried out by an amplified luminescence proximity homogeneous assay. The specific method is described below.
H4KAc4 peptide (available from Toray Research Center, Inc., sequence SGRGK(Ac)GGK(Ac)GLGK(Ac)GGAK(Ac)RHR-K(Biotin)-NH2) was dissolved in 1×Assay buffer to prepare 1 mM H4KAc4 peptide stock solution.
N-terminal His tag/C-terminal FLAG tag-fused type Recombinant BRD4 (44-168) protein (available from Active Motif, Cat No. 31380) was diluted with 1×Assay buffer to 1,250-fold to prepare 250 nM BRD4 solution.
1% DMSO solution (control) and 2 μL of each compound solution in each concentration were added to each well of AlphaPlate-384 (from PerkinElmer, Cat No. 6008350). Next, 2 μL of 250 nM BRD4 solution was added to each well of AlphaPlate-384. Further, 2 μL of 250 nM H4KAc4 peptide solution was added to each well of AlphaPlate-384. After addition of the 250 nM H4KAc4 peptide solution, the mixture was allowed to stand at room temperature under light shielding for 60 minutes, and 4 μL of AlphaScreen beads were added to each well of AlphaPlate-384. After addition of the AlphaScreen beads, the mixture was allowed to stand at room temperature under light shielding for 60 minutes, emission at 520-620 nm upon excitation at 680 nm was detected by EnVision multilabel counter (from PerkinElmer), and binding of BRD4 and H4KAc4 was detected. Incidentally, the evaluation of each compound was carried out in duplicate (2 well per 1 compound).
(§1) The BRD4 inhibition rate (%) was calculated by the following equation using Microsoft EXCEL 2010. BRD4 inhibition rate (%)=100−{(luminescence intensity average value of each compound added well)−(average value of luminescence intensity of blank well))/(average value of luminescence intensity of control well)−(average value of luminescence intensity of blank well)}×100

[2] = test system: NF-κB; experiment: NF-κB reporter gene assay (TNF-α stimulated A549/NF-κB-luc cells); assay type: cell-based; conditions: Homo sapiens, TNF-α stimulation
Description: In order to evaluate NF-κB inhibitory activity of the present compounds, NF-κB reporter gene assay was carried out. The specific method is described below.
Gene recombinant human TNF-α (available from R&D systems, Cat No. 210-TA) was dissolved in D-PBS(−) (available from Wako Pure Chemical Industries, Ltd., Cat No. 293-72601) to prepare 100 μg/mL of TNF-α solution stock solution. 100 μg/mL of the TNF-α solution stock solution was diluted with the culture medium to prepare 10 ng/mL of TNF-α solution.
A549/NF-κB-luc cells (available from Panomics, Cat No. LR0051) were prepared at 375,000 cells/mL in the culture medium. The 375,000 cells/mL A549/NF-κB-luc cell suspension was seeded at 80 μL each on a white 96-well plate (available from Greiner, Cat No. 655073). One hour after seeding the cells, 10 μL of 2% DMSO solution (control) and each compound solution in each concentration were added to each well of the 96-well plate. One hour after the addition of each compound solution, 10 ng/mL of the TNF-α solution (10 μL) was added to each well of the 96-well plate. Three hours after the addition of 10 ng/mL of the TNF-α solution, 100 μL of Steady-Glo reagent (available from Promega, Cat No. E2510) was added to each well of the 96-well plate. After 30 to 90 minutes of the addition of the Steady-Glo reagent, the luminescence intensity of each well was detected by EnVision multilabel counter (available from PerkinElmer).
as §1, with “NF-κB” for “The BRD4”, “NF-κB” for “BRD4”, “well)}×100 In addition, IC50 values were calculated from the calculated NF-κB inhibition rate (%) using curve fitting software XLfit (available from IDBS).” for “well)}×100”

inhibition at 10 µM [1] | IC50 [2] | Structure (SMILES)
101% | 3.1 µM | Cc1sc2c(c1C)C(c1ccccc1)=NNc1nnc(C)n1-2 [Example 27, 2,3,9-trimethyl-4-phenyl-6H-thieno[2,3-e][1,2,4]triazolo[3,4-c][1,2,4]triazepine]
101% | 0.265 µM | Cc1sc2c(c1C)C(c1ccccc1)=NN(Cc1ccccc1)c1nnc(C)n1-2 [Example 29, 6-benzyl-2,3,9-trimethyl-4-phenyl-6H-thieno[2,3-e][1,2,4]triazolo[3,4-c][1,2,4]triazepine]
99.2% | 0.0872 µM | COc1cccc(CN2N=C(c3ccccc3)c3c(sc(C)c3C)-n3c(C)nnc32)c1 [Example 33, 6-(3-methoxybenzyl)-2,3,9-trimethyl-4-phenyl-6H-thieno[2,3-e][1,2,4]triazolo[3,4-c][1,2,4]triazepine]
100% | 0.612 µM | COc1ccccc1CN1N=C(c2ccc(Cl)cc2)c2c(sc(C)c2C)-n2c(C)nnc21 [Example 34, 4-(4-chlorophenyl)-6-(2-methoxybenzyl)-2,3,9-trimethyl-6H-thieno[2,3-e][1,2,4]triazolo[3,4-c][1,2,4]triazepine]
100% | 0.401 µM | Cc1sc2c(c1C)C(c1ccc(Cl)cc1)=NN(Cc1ccc(Cl)cn1)c1nnc(C)n1-2 [Example 36, 4-(4-chlorophenyl)-6-((5-chloropyridin-2-yl)methyl)-2,3,9-trimethyl-6H-thieno[2,3-e][1,2,4]triazolo[3,4-c][1,2,4]triazepine]
100% | 0.62 µM | Cc1sc2c(c1C)C(c1ccc(Cl)cc1)=NN(Cc1cncc(Cl)c1)c1nnc(C)n1-2 [Example 39, 4-(4-chlorophenyl)-6-((5-chloropyridin-3-yl)methyl)-2,3,9-trimethyl-6H-thieno[2,3-e][1,2,4]triazolo[3,4-c][1,2,4]triazepine]
100% | 0.699 µM | Cc1sc2c(c1C)C(c1ccc(Cl)cc1)=NN(Cc1cc(Cl)ccn1)c1nnc(C)n1-2 [Example 40, 4-(4-chlorophenyl)-6-((4-chloropyridin-2-yl)methyl)-2,3,9-trimethyl-6H-thieno[2,3-e][1,2,4]triazolo[3,4-c][1,2,4]triazepine]
100% | 1.15 µM | Cc1sc2c(c1C)C(c1ccc(Cl)cc1)=NN(Cc1ccnc(F)c1)c1nnc(C)n1-2 [Example 42, 4-(4-chlorophenyl)-6-((2-fluoropyridin-4-yl)methyl)-2,3,9-trimethyl-6H-thieno[2,3-e][1,2,4]triazolo[3,4-c][1,2,4]triazepine]
100% | 1.83 µM | Cc1sc2c(c1C)C(c1ccc(Cl)cc1)=NN(Cc1cnccc1Cl)c1nnc(C)n1-2 [Example 43, 4-(4-chlorophenyl)-6-((4-chloropyridin-3-yl)methyl)-2,3,9-trimethyl-6H-thieno[2,3-e][1,2,4]triazolo[3,4-c][1,2,4]triazepine]
99.3% | 9.85 µM | Cc1sc2c(c1C)C(c1ccc(Cl)cc1)=NN(CCc1c[nH]c3ccccc13)c1nnc(C)n1-2 [Example 44, 6-(2-(1H-indol-3-yl)ethyl)-4-(4-chlorophenyl)-2,3,9-trimethyl-6H-thieno[2,3-e][1,2,4]triazolo[3,4-c][1,2,4]triazepine]
99.9% | 0.429 µM | Cc1sc2c(c1C)C(c1ccc(Cl)cc1)=NN(Cc1cccs1)c1nnc(C)n1-2 [Example 45, 4-(4-chlorophenyl)-2,3,9-trimethyl-6-(thiophen-2-ylmethyl)-6H-thieno[2,3-e][1,2,4]triazolo[3,4-c][1,2,4]triazepine]
100% | 0.683 µM | COc1cccc(CN2N=C(c3ccc(Cl)cc3)c3c(sc(C)c3C)-n3c(C)nnc32)n1 [Example 46, 4-(4-chlorophenyl)-6-((6-methoxypyridin-2-yl)methyl)-2,3,9-trimethyl-6H-thieno[2,3-e][1,2,4]triazolo[3,4-c][1,2,4]triazepine]
100% | 0.554 µM | COc1ccc(CN2N=C(c3ccc(Cl)cc3)c3c(sc(C)c3C)-n3c(C)nnc32)nc1 [Example 47, 4-(4-chlorophenyl)-6-((5-methoxypyridin-2-yl)methyl)-2,3,9-trimethyl-6H-thieno[2,3-e][1,2,4]triazolo[3,4-c][1,2,4]triazepine]
100% | 0.297 µM | COc1ccnc(CN2N=C(c3ccc(Cl)cc3)c3c(sc(C)c3C)-n3c(C)nnc32)c1 [Example 48, 4-(4-chlorophenyl)-6-((4-methoxypyridin-2-yl)methyl)-2,3,9-trimethyl-6H-thieno[2,3-e][1,2,4]triazolo[3,4-c][1,2,4]triazepine]
100% | 0.355 µM | COc1ccc(CN2N=C(c3ccc(Cl)cc3)c3c(sc(C)c3C)-n3c(C)nnc32)cn1 [Example 50, 4-(4-chlorophenyl)-6-((6-methoxypyridin-3-yl)methyl)-2,3,9-trimethyl-6H-thieno[2,3-e][1,2,4]triazolo[3,4-c][1,2,4]triazepine]
100% | 0.265 µM | COc1ccncc1CN1N=C(c2ccc(Cl)cc2)c2c(sc(C)c2C)-n2c(C)nnc21 [Example 51, 4-(4-chlorophenyl)-6-((4-methoxypyridin-3-yl)methyl)-2,3,9-trimethyl-6H-thieno[2,3-e][1,2,4]triazolo[3,4-c][1,2,4]triazepine]
100% | 5.23 µM | Cc1sc2c(c1C)C(c1ccc(Cl)cc1)=NN(Cc1cccc(N)c1)c1nnc(C)n1-2 [Example 52, 3-((4-(4-chlorophenyl)-2,3,9-trimethyl-6H-thieno[2,3-e][1,2,4]triazolo[3,4-c][1,2,4]triazepin-6-yl)methyl)aniline]
100% | 2.98 µM | Cc1sc2c(c1C)C(c1ccc(Cl)cc1)=NN(Cc1cccc(O)c1)c1nnc(C)n1-2 [Example 53, 3-((4-(4-chlorophenyl)-2,3,9-trimethyl-6H-thieno[2,3-e][1,2,4]triazolo[3,4-c][1,2,4]triazepin-6-yl)methyl)phenol]
100% | 2.76 µM | Cc1sc2c(c1C)C(c1ccc(Cl)cc1)=NN(Cc1cccc(N(C)C)c1)c1nnc(C)n1-2 [Example 55, 3-((4-(4-chlorophenyl)-2,3,9-trimethyl-6H-thieno[2,3-e][1,2,4]triazolo[3,4-c][1,2,4]triazepin-6-yl)methyl)-N,N-dimethylaniline]
100% | 0.942 µM | CC(=O)Nc1cc(CN2N=C(c3ccc(Cl)cc3)c3c(sc(C)c3C)-n3c(C)nnc32)ccn1 [Example 56, N-(4-((4-(4-chlorophenyl)-2,3,9-trimethyl-6H-thieno[2,3-e][1,2,4]triazolo[3,4-c][1,2,4]triazepin-6-yl)methyl)pyridin-2-yl)acetamide]
100% | 0.558 µM | Cc1sc2c(c1C)C(c1ccc(Cl)cc1)=NN(Cc1ccnc(N)c1)c1nnc(C)n1-2 [Example 57, 4-((4-(4-chlorophenyl)-2,3,9-trimethyl-6H-thieno[2,3-e][1,2,4]triazolo[3,4-c][1,2,4]triazepin-6-yl)methyl)pyridin-2-amine]
100% | 0.728 µM | COc1ccc(CN2N=C(c3ccc(Cl)cc3)c3ccsc3-n3c(C)nnc32)cc1 [Example 58, 4-(4-chlorophenyl)-6-(4-methoxybenzyl)-9-methyl-6H-thieno[2,3-e][1,2,4]triazolo[3,4-c][1,2,4]triazepine]
